Test results from EPA's CvTdb concentration-time database.
“And” between values parts separate entries of the source, which are not always exact repeats. Equal values may be shown once.

Assays:
rat [1] = experiment: concentration in blood after dosing; negative times count back from the end of exposure; settings: dosed: tert-amyl methyl ether, inhalation, duration: 6 hr, male, F344 (Charles River)
Rat [2] = experiment: concentration in brain after dosing; settings: dosed: Perfluorooctane Sulfonate, oral
Rat [3] = experiment: concentration in liver after dosing; settings: dosed: Perfluorooctane Sulfonate, oral
Rat [4] = experiment: concentration in kidney after dosing; settings: dosed: Perfluorooctane Sulfonate, oral
Rat [5] = experiment: concentration in plasma after dosing

CCC(C)(C)O [tertiary amyl alcohol]
rat [1]
Settings | concentration in blood [ng/mL]
0.1349 h, 100 ppm | 3120
0.1606 h, 500 ppm | 18700
0.161 h, 100 ppm | 2610
0.1742 h, 500 ppm | 28700
0.1776 h, 100 ppm | 4090
0.1793 h, 100 ppm | 3740
0.2114 h, 500 ppm | 25900
0.3273 h, 2500 ppm | 96000
0.3463 h, 2500 ppm | 119000
0.3468 h, 100 ppm | 3320
0.3507 h, 100 ppm | 2500
0.3521 h, 500 ppm | 18700
0.3559 h, 2500 ppm | 101000
0.358 h, 500 ppm | 33000
0.3593 h, 500 ppm | 32300
0.3685 h, 100 ppm | 3740
0.369 h, 100 ppm | 3620
0.3717 h, 500 ppm | 25500
0.8785 h, 2500 ppm | 113000
0.8797 h, 2500 ppm | 110000
0.8894 h, 2500 ppm | 91700
0.8908 h, 2500 ppm | 89100
0.9009 h, 100 ppm | 1190
0.9009 h, 500 ppm | 15400
0.9138 h, 500 ppm | 25900
0.9151 h, 500 ppm | 25100
0.9198 h, 100 ppm | 2180
0.9217 h, 500 ppm | 21500
0.9218 h, 100 ppm | 1760
1.789 h, 2500 ppm | 96800
1.799 h, 2500 ppm | 76700
1.823 h, 100 ppm | 1290
1.824 h, 2500 ppm | 89300
2.017 h, 500 ppm | 16200
2.018 h, 500 ppm | 15400
2.026 h, 500 ppm | 11400
3.851 h, 500 ppm | 8400
3.852 h, 500 ppm | 7720
3.858 h, 500 ppm | 4810
3.985 h, 2500 ppm | 61200
3.989 h, 2500 ppm | 52300
3.99 h, 2500 ppm | 49700
3.991 h, 2500 ppm | 48600
9.831 h, 2500 ppm | 3190
9.837 h, 500 ppm | 123
17.91 h, 500 ppm | 185
36 s, 100 ppm | 4500

rat [1], during exposure
Settings | concentration in blood
-112 s, 100 ppm | 3220 ng/mL
-97 s, 100 ppm | 2350 ng/mL
-51 s, 500 ppm | 27000 ng/mL
-36 s, 100 ppm | 3730 ng/mL
-27 s, 500 ppm | 23300 ng/mL
-5.969 h, 2500 ppm | 2030 ng/mL
-5.968 h, 2500 ppm | 298 ng/mL
-5.931 h, 100 ppm | 373 ng/mL
-5.788 h, 100 ppm | 269 ng/mL
-5.779 h, 500 ppm | 1540 ng/mL
-5.777 h, 500 ppm | 432 ng/mL
-5.722 h, 2500 ppm | 4830 ng/mL
-5.695 h, 100 ppm | 530 ng/mL
-5.662 h, 2500 ppm | 10000 ng/mL
-5.661 h, 2500 ppm | 6980 ng/mL
-5.626 h, 100 ppm | 895 ng/mL
-5.601 h, 100 ppm | 790 ng/mL
-5.589 h, 500 ppm | 2720 ng/mL
-5.079 h, 2500 ppm | 24900 ng/mL
-5.077 h, 2500 ppm | 21200 ng/mL
-5.075 h, 2500 ppm | 17100 ng/mL
-5.019 h, 500 ppm | 5250 ng/mL
-5.017 h, 500 ppm | 4200 ng/mL
-5.015 h, 100 ppm | 1710 ng/mL
-5.013 h, 100 ppm | 1350 ng/mL
-5.012 h, 100 ppm | 1200 ng/mL
-5.011 h, 100 ppm | 882 ng/mL
-4.072 h, 100 ppm | 2490 ng/mL
-4.07 h, 100 ppm | 2010 ng/mL
-4.069 h, 100 ppm | 1890 ng/mL and 1860 ng/mL
-3.994 h, 2500 ppm | 30900 ng/mL
-3.993 h, 2500 ppm | 29600 ng/mL
-3.992 h, 2500 ppm | 28500 ng/mL
-3.908 h, 500 ppm | 8890 ng/mL
-3.906 h, 500 ppm | 7410 ng/mL
-2.076 h, 500 ppm | 19600 ng/mL
-2.075 h, 500 ppm | 19000 ng/mL
-2.065 h, 100 ppm | 3210 ng/mL
-2.062 h, 100 ppm | 2590 ng/mL
-2.061 h, 100 ppm | 2340 ng/mL
-2.046 h, 100 ppm | 4250 ng/mL
-2.018 h, 2500 ppm | 59800 ng/mL
-2.017 h, 2500 ppm | 58900 ng/mL
-2 h, 2500 ppm | 84600 ng/mL
-1.996 h, 2500 ppm | 78100 ng/mL
-0.2032 h, 2500 ppm | 99500 ng/mL
-0.1979 h, 2500 ppm | 89100 ng/mL
-0.1701 h, 2500 ppm | 95600 ng/mL
-0.031 h, 500 ppm | 18700 ng/mL

O=S(=O)([O-])C(F)(F)C(F)(F)C(F)(F)C(F)(F)C(F)(F)C(F)(F)C(F)(F)C(F)(F)F [Perfluorooctane Sulfonate]
Settings | concentration in brain, Rat [2] [ng/g] | concentration in kidney, Rat [4] [ng/g] | concentration in liver, Rat [3] [ng/g]
6 h, 2 mg/kg, Female, Harlan Sprague Dawley | – | 4960 | 24800
6 h, 20 mg/kg, Female, F344 | 3650 | 112000 | 118000
6 h, 20 mg/kg, Male, Harlan Sprague Dawley | 5430 | 85500 | 135000
24 h, 2 mg/kg, Female, Harlan Sprague Dawley | 615 | 5860 | 24400
24 h, 20 mg/kg, Female, F344 | 11500 | 131000 | 127000
24 h, 20 mg/kg, Male, Harlan Sprague Dawley | 9570 | 66800 | 148000
864 h, 2 mg/kg, Female, Harlan Sprague Dawley | – | 1750 | 13200
864 h, 20 mg/kg, Female, F344 | 3420 | 53400 | 72900
864 h, 20 mg/kg, Male, Harlan Sprague Dawley | 2750 | 21500 | 93900
1848 h, 2 mg/kg, Female, Harlan Sprague Dawley | – | 923 | 5150
1848 h, 20 mg/kg, Female, F344 | 1270 | 21400 | 44900
1848 h, 20 mg/kg, Male, Harlan Sprague Dawley | 1560 | 10500 | 51000
3360 h, 2 mg/kg, Female, Harlan Sprague Dawley | – | 517 | 8200
3360 h, 20 mg/kg, Male, Harlan Sprague Dawley | 672 | 2460 | 22900

concentration in plasma [ng/mL], Rat [5], dosed: Perfluorooctane Sulfonate, 2 mg/kg
Settings | Female | Male
1 h, iv, F344 | 4190 | –
1 h, iv, Harlan Sprague-Dawley | 4680 | –
1 h, oral, Harlan Sprague Dawley | 2210 | –
5 min, iv, F344 | 4540 | –
5 min, iv, Harlan Sprague-Dawley | 4940 | –
5 min, oral, Harlan Sprague Dawley | 45.8 | –
6 h, iv, F344 | 4360 | 4280
6 h, oral, Harlan Sprague Dawley | 3970 | –
12 h, iv, F344 | 4300 | 3680
12 h, oral, Harlan Sprague Dawley | 7550 | –
24 h, iv, F344 | 4320 | 3470
24 h, iv, Harlan Sprague-Dawley | 3660 | –
24 h, oral, Harlan Sprague Dawley | 4650 | –
192 h, iv, F344 | 4590 | –
192 h, iv, Harlan Sprague-Dawley | 2490 | –
192 h, oral, Harlan Sprague Dawley | 3130 | –
528 h, iv, F344 | 3280 | 1770
528 h, iv, Harlan Sprague-Dawley | 2170 | –
528 h, oral, Harlan Sprague Dawley | 2690 | –
864 h, iv, F344 | 1540 | 1300
864 h, oral, Harlan Sprague Dawley | 1610 | –
1200 h, iv, F344 | 2010 | 1650
1200 h, iv, Harlan Sprague-Dawley | 650 | –
1200 h, oral, Harlan Sprague Dawley | 1100 | –
1704 h, iv, F344 | 1840 | 573
1704 h, iv, Harlan Sprague-Dawley | 868 | –
1848 h, oral, Harlan Sprague Dawley | 780 | –
2376 h, iv, F344 | 750 | 395
2376 h, iv, Harlan Sprague-Dawley | 698 | –
2520 h, oral, Harlan Sprague Dawley | 388 | –
3216 h, iv, F344 | 90.3 | –
3360 h, oral, Harlan Sprague Dawley | 237 | –

Cc1ccc(C)c(OCCCC(C)(C)C(=O)O)c1 [Gemfibrozil]
concentration in plasma [ng/mL], Rat [5], dosed: Gemfibrozil, oral, Male, Sprague-Dawley
Settings | 4.29 mg/kg | 50 mg/kg | 100 mg/kg
0.25 h | 250 | 17900 | 67400
0.5 h | 314 | 15700 | 34600
1 h | 147 | 5640 | 26200
2 h | 307 | 3310 | 8500
4 h | 566 | 8040 | 6870
5 min | 395 | 1580 | 13300
6 h | 401 | 9040 | 19600
10 h | 286 | 4860 | –
10 min | 2260 | 7420 | 40200
15 h | 137 | 1870 | –
18 h | 108 | 975 | 2190
24 h | 128 | 920 | 1800
